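Compound exposure: 48 hours, 5 concentrations, 96-well plates. Abbreviation: GI50, concentration required for 50% inhibition of growth.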 The source made the active and inactive calls. Cut-off read from the data, not from the text of the source: active = GI50 up to about 1.1 µM and inactive = higher.
Assays:
Assay in all cases: DTP human tumour cell line panel, 48 h
[1] = test system: HCT-116
[2] = test system: SF-295
[3] = test system: SW-620
[4] = test system: HOP-92
[5] = test system: CAKI-1
[6] = test system: SK-MEL-28
[7] = test system: RXF 393
[8] = test system: SK-MEL-5
[9] = test system: PC-3
[10] = test system: UACC-62
[11] = test system: SN12C
[12] = test system: Hs-578T
[13] = test system: NCI/ADR-RES
[14] = test system: HCC 2998
[15] = test system: NCI-H522
[16] = test system: A498
[17] = test system: OVCAR-4
[18] = test system: A549
[19] = test system: T47D
[20] = test system: DU-145
[21] = test system: BT-549
[22] = test system: MDA-MB-231
[23] = test system: NCI-H23
[24] = test system: OVCAR-5
[25] = test system: TK-10
[26] = test system: UACC-257
[27] = test system: LOX IMVI
[28] = test system: ACHN
[29] = test system: RPMI-8226
[30] = test system: NCI-H226
[31] = test system: HT-29
[32] = test system: OVCAR-8
[33] = test system: UO-31
[34] = test system: SNB-75
[35] = test system: HCT-15
[36] = test system: COLO 205
[37] = test system: K562
[38] = test system: SK-MEL-2
[39] = test system: MDA-MB-435
[40] = test system: M14
[41] = test system: EKVX
[42] = test system: IGROV-1
[43] = test system: 786-0
[44] = test system: SK-OV-3
[45] = test system: SNB-19
[46] = test system: SF-268
[47] = test system: NCI-H460
[48] = test system: KM12
[49] = test system: MDA-N
[50] = test system: MCF7
[51] = test system: HOP-62
[52] = test system: SR
[53] = test system: Malme-3M
[54] = test system: U-251
[55] = test system: MOLT-4
[56] = test system: HL-60
[57] = test system: SF-539
[58] = test system: CCRF-CEM
[59] = test system: OVCAR-3

Measured: GI50

c1ccc(C(CCN2CCCC2)c2ccccn2)cc1 (configuration not stated)
> 100 µM: [35]
active: [52] < 0.01 µM
inactive: [1] > 100 µM | [2] > 100 µM | [3] > 100 µM | [4] > 100 µM | [5] > 100 µM | [6] > 100 µM | [7] > 100 µM | [8] > 100 µM | [9] > 100 µM | [10] > 100 µM | [11] > 100 µM | [12] > 100 µM | [13] > 100 µM | [14] > 100 µM | [15] > 100 µM | [16] > 100 µM | [17] > 100 µM | [18] > 100 µM | [19] > 100 µM | [20] > 100 µM | [21] > 100 µM | [22] > 100 µM | [23] > 100 µM | [24] > 100 µM | [25] > 100 µM | [26] > 100 µM | [27] > 100 µM | [28] > 100 µM | [29] > 100 µM | [30] > 100 µM | [31] > 100 µM | [32] > 100 µM | [33] > 100 µM | [34] > 100 µM | [36] > 100 µM | [37] > 100 µM | [38] > 100 µM | [39] > 100 µM | [40] > 100 µM | [41] > 100 µM | [42] > 100 µM | [43] > 100 µM | [44] > 100 µM | [45] > 100 µM | [46] > 100 µM | [47] > 100 µM | [48] > 100 µM | [49] > 100 µM | [50] > 100 µM | [51] > 100 µM | [53] > 100 µM | [54] > 100 µM

C/C(=N\[N+](C)(C)C)c1ccc(C)c(C)c1
inactive: [1] 76.9 µM | [2] 83.6 µM | [3] 51.3 µM | [55] > 10 µM | [4] > 10 µM | [5] > 10 µM | [6] > 10 µM | [7] 62.8 µM | [8] 35.7 µM | [9] 36.9 µM | [56] 82.2 µM | [10] > 100 µM | [11] 20.4 µM | [12] > 10 µM | [13] > 10 µM | [14] > 10 µM | [15] 49.1 µM | [57] > 10 µM | [16] 22.3 µM | [17] 88.1 µM | [18] 7.62 µM | [19] > 100 µM | [20] 64.3 µM | [58] 35.4 µM | [21] 58.3 µM | [22] > 10 µM | [23] 62.5 µM | [24] 42.4 µM | [25] 45.9 µM | [59] 78.2 µM | [27] > 10 µM | [28] > 10 µM | [29] 54 µM | [31] 21.1 µM | [32] 55.1 µM | [33] 77.4 µM | [34] 53.5 µM | [36] 14.6 µM | [37] 46.1 µM | [38] > 100 µM | [39] 96.4 µM | [40] > 10 µM | [41] 7.5 µM | [42] > 100 µM | [43] > 10 µM | [44] 77.6 µM | [45] 42.9 µM | [46] > 10 µM | [47] 29.4 µM | [48] 24.9 µM | [49] 45.8 µM | [50] > 10 µM | [51] > 10 µM | [52] 82.6 µM | [53] > 10 µM | [54] 39.4 µM
> 10 µM: [35]
active: [26] 0.752 µM

From ChEMBL document CHEMBL1201862, “PubChem BioAssay data set” (2004)
